For series [1], the system named is Helicobacter pylori. As to the kind of experiment: Minimal Inhibitory Concentrations against Helicobacter pylori on agar plates. The series is classed as cell-based. On the procedure: Activity of bismuth compounds against Helicobarter pylori
Various bismuth compounds were tested in different concentrations against Helicobacter pylori on agar plates. Minimal Inhibitory Concentrations (MIC--values) are given in mg substance per litre.

A short description of series [2]: stability against hydrolysis. It is filed as physicochemical. The following applies: dissolved in aqueous (25%) tetrahydrofuran, under reflux. The source says:
When the R1-5 -groups form Bi--C bonds, aryl grou7ps are generally preferred. At least one of the R1-5 -groups should be an aryl group or substituted aryl group. The term "aryl group" here means any aromatic hydrocarbon ring system or aromatic heterocyclic system. Typical ring systems include for example benzene, naphthalene, indene, fluorene, phenalene, phenanthrene, anthracene, fluoranthene, acephenanthrylene, aceanthrylene, triphenylene, pyrene, chrysene, naphthacene, pleiadene, picene, perylene, pentaphene, pentacene, tetraphenylene, hexaphene, hexacene, rubicene, coronene, trinaphthylene, heptaphene, rubicene, coronene, heptacene, pyranthrene, ovalene, furan, thiophene, thianthrene, pyran, isobenzofuran, chromene, xanthene, phenoxathin, pyrrole, imidazole, pyrazole, isothiazole, isoxazole, pyridine, pyrazine, pyrimidine, pyradizine, indolizine, isoindole, indole, indazole, purine, quinolizine, isocaunoline, quinoline, phtalazine, naphyhyridine, quinoxaline, quinazoline, cinnoline, pteridine, carbazole, β-carboline, phenanthridine, acridine, permidine, phenanthroline, phenazine, phenarsazine, phenothiazine, furazan, phenoxazine, isochroman, chroman, indoline and iso-indoline.

Regarding “Tris(2,4,6trimethylphenyl)bismuthine dichloride [Example 15]”, the “Minimal Inhibitory Concentration (MIC - value)” value (“Minimal Inhibitory Concentration” for short) in series [1] is given as ≤ 0.25 mg substance per litre.

In the case of `c1cc[c]([Bi]([c]2ccccc2)[c]2ccccc2)cc1` [triphenylbismuth], the stability against hydrolysis result in series [2] is recorded as “stable under reflux for many days”. As to “Triphenylbismuthine difluoride [Example 16]”, the “Minimal Inhibitory Concentration” value in series [1] came to 8 mg substance per litre. Regarding `O=[N+]([O-])[O-].O=[N+]([O-])[O-].O=[N+]([O-])[O-].O=[N+]([O-])[O-].[Bi+3].[Bi+3].[Bi+3].[Bi+3].[Bi+3].[O-2].[OH-].[OH-].[OH-].[OH-].[OH-].[OH-].[OH-].[OH-].[OH-]` [Bismuth subnitrate, bismuth hydroxide nitrate oxide], the “Minimal Inhibitory Concentration” value in series [1] was determined as 32 mg substance per litre.

For the origin of these results see patent US6303101A, “Bismuth compounds” (Nycomed Imaging AS, priority 1995, dated 2001).
